Test results from patent publication US10799442B2, “Compounds useful in the treatment and/or care of the skin, hair, nails, and/or mucous membranes” (LUBRIZOL ADVANCED MATERIALS, INC., priority 2015, dated 2020).

How the values were obtained:
human miRNA145 = experiment: miRNA145 inhibition on Human Keratinocyte HaCaT cell line, direct quantification by luminescence; assay type: cell-based; settings: HaCaT cells, 0.3 mg/ml, 24 hours, normalized with Snord48; mean of 3 experiments for DD14024, one experiment for the others
Experimental: The synthetic peptide candidates are evaluated for the inhibition of human miRNA145 expression level using a direct miRNA145 quantification assay based on luminescence detection in a Human Keratinocyte HaCaT cell line.
HaCat cells (Deutsches Krebsforschungszentrum) are seeded at 3.0×10^4 cells/well in 96-clear wells plates and incubated in a culture medium [(DMEM High Glucose with L-Glutamine (Lonza), supplemented with 10% Fetal Bovine Serum (Cultek)] for 24 hours at 37° C. in a water-saturated atmosphere of 95% air and 5% CO2. Then, the cells with the candidates added at 0.3 mg/ml in the culture medium are treated for 24 hours at 37° C., 95% air and 5% CO2. Cells with culture medium only are treated to the same conditions to provide basal conditions. Each cell culture condition is assayed at least in 6 biological replicates. At the end of the incubation period, the cells are lysed and the relative miRNA145 expression level is quantified by a specific assay kit (QuantiGene™ 2.0 miRNA Assay Kit) following manufacturer's instructions (Affymetrix). Briefly, to capture miRNA145, culture lysates are incubated overnight at 46±1° C. in 96-white well plates with the miRNA145 specific probe set (Capture extenders and Label extenders). As an endogenous expression control, the housekeeping Snord48 is quantified using a specific probe set. Next day, the signal amplification tree is built via sequential hybridization at 46±1° C. of three probes: PreAmplifier, Amplifier and Alkaline Phosphatase Label Probe. Then, the signal is detected by adding a chemiluminescent substrate and using a Microplate Luminometer Reader (Clariostar-BMG LabTech).
The miRNA145 expression level result is normalized with the Snord48 expression level for each cell culture condition and the relative decrease in the miRNA145 expression level is calculated respect to basal control (cells treated with culture medium only). The values represent the mean of 3 independent experiments for DD14024, and for the other candidates, represent the result of one experiment.

Keratin 10 = experiment: Keratin expression in reconstructed human epidermal tissue (RHE), immunohistochemistry (Keratin 10); assay type: cell-based; settings: Keratin 10 immunofluorescence, 10 μg/ml, 48 hours
From the text: The human epidermis continuously renews itself by a process of proliferation and differentiation of keratinocytes. Basal epidermal stem cells proliferate and the differentiation process begins above the basal layer, whereby the differentiating keratinocytes slowly move outward from the basal membrane, migrate through the epidermis, and undergo terminal differentiation culminating in fully differentiated dead cells on the surface. The process is a dynamic flux so that surface cells are continuously sloughed and replaced by inner cells differentiating and moving outward. […] To study the ability of the peptides of the invention to recover the basal keratinocyte state, the expression of Keratins 10 and 14 is evaluated by immunohistochemistry in a three-dimensional culture system, Reconstructed Human Epidermal Tissue (RHE), that reproduces in vitro the histological organization of human epidermis in situ. […]
The expression of Keratins 10 and 14 is evaluated by immunohistochemistry with a specific primary antibody and a fluorescently labelled secondary antibody. […] At the end of the incubation, slides are washed with 0.2% solution of Tween 20 in PBS and are incubated with Alexa Fluor® 488 Goat anti-mouse IgG (H+L) secondary antibody (Invitrogen, green fluorescence emission dye) for 1 hour at room temperature in a dark humidified chamber. […]

Ac-QEMRMQ-OH [DD14024, Ac-Gln-Glu-Met-Arg-Met-Gln-OH]
Relative level of miRNA145 respect to basal control (%) (human miRNA145): 85.06 ± 6.35%
Fold induction respect to basal conditions (%) (Keratin 10): 28.70%
